In one data set the test system is hWB. The experiment in a line: hWB. The class given is cell-based. The note with it: printed as "hWB" value in the pMLKL IC50 column; no method given.
Data set [1] deals with T1, MDR1 P-glycoprotein (P-gp) (Homo sapiens, UniProt P08183).
T1 construct: host or cells: MDCK (MDCK-MDR1)
The experiment in a line: Transporter assay, bi-directional transport, MDCK-MDR1 cells. The class given is in vitro ADME. Particulars: human, MDCK-MDR1, 0.1 uM, basolateral to apical / apical to basolateral, >2 = substrate, read-out: PGP (efflux ratio). Here is the method:
(§1) Compounds were assessed as substrates of MDR1 P-glycoprotein (P-gp) and mouse Breast Cancer Resistance Protein (mBcrp) at 0.1 uM, for 2 hours, in bi-directional transport assays using recombinant MDCK cell lines as described previously (Feng et al. Drug Metabolism and Disposition 2008, Vol. 36:268-275). MDCK-MDR1 and MDCK-mBcrp cells were acquired from the National Institutes of Health (Bethesda, MID) and the Netherlands Cancer Institute respectively, and used under license agreement. Data are expressed as efflux ratios, where transport across the cell monolayer in the basolateral to apical direction is divided by transport in the apical to basolateral direction. Efflux ratios >2 indicate the test compound is a substrate of the transporter tested.

The target of data set [2] is T2, mouse Breast Cancer Resistance Protein (mBcrp) (Mus musculus, UniProt Q7TMS5).
T2 construct: host or cells: MDCK (MDCK-mBcrp)
T2 sequence (Q7TMS5 1-657): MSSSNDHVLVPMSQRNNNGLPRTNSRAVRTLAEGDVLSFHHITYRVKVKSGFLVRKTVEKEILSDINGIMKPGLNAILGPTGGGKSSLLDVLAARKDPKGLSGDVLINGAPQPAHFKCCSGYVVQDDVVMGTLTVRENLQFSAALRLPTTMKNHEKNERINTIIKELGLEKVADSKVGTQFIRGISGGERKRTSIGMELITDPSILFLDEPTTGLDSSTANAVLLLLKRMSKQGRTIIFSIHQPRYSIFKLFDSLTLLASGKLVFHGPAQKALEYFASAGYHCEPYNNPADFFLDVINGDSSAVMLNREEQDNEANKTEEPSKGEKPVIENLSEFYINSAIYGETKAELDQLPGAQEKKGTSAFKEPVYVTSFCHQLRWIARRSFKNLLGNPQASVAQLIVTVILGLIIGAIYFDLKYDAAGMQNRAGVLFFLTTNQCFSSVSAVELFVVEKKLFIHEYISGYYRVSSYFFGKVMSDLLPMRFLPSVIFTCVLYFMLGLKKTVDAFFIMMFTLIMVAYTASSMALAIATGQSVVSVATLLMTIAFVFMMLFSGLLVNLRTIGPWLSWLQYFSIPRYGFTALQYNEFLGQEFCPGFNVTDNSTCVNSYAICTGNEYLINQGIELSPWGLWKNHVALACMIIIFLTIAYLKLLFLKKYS
Put plainly: Transporter assay, bi-directional transport, MDCK-mBcrp cells. It counts as in vitro ADME. Particulars: mouse, basolateral to apical / apical to basolateral, >2 = substrate, read-out: BCRP (efflux ratio). Here is the method: as §1

Data set [3] concerns MLKL phosphorylation (pMLKL) in HT29-L23 cells. The experiment in a line: MLKL Phosphorylation High-Content Assay. The note with it: 6 h, necroptosis induced with human TNFα, SMAC mimetic and Z-VAD, read-out: LE pMLKL HC IC50. It counts as cell-based. The procedure, abridged: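 HT29-L23 cells incubated 6 h at 37° C before detection of phospho-MLKL by immunostaining with anti-phospho-MLKL antibody (1:1000 in PBS/0.1% BSA, overnight at 4° C). Readout by high-content imaging with compartmental image analysis.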

Where two headings read alike, the source gives them in different places.

T1 sequence (P08183 whole entry): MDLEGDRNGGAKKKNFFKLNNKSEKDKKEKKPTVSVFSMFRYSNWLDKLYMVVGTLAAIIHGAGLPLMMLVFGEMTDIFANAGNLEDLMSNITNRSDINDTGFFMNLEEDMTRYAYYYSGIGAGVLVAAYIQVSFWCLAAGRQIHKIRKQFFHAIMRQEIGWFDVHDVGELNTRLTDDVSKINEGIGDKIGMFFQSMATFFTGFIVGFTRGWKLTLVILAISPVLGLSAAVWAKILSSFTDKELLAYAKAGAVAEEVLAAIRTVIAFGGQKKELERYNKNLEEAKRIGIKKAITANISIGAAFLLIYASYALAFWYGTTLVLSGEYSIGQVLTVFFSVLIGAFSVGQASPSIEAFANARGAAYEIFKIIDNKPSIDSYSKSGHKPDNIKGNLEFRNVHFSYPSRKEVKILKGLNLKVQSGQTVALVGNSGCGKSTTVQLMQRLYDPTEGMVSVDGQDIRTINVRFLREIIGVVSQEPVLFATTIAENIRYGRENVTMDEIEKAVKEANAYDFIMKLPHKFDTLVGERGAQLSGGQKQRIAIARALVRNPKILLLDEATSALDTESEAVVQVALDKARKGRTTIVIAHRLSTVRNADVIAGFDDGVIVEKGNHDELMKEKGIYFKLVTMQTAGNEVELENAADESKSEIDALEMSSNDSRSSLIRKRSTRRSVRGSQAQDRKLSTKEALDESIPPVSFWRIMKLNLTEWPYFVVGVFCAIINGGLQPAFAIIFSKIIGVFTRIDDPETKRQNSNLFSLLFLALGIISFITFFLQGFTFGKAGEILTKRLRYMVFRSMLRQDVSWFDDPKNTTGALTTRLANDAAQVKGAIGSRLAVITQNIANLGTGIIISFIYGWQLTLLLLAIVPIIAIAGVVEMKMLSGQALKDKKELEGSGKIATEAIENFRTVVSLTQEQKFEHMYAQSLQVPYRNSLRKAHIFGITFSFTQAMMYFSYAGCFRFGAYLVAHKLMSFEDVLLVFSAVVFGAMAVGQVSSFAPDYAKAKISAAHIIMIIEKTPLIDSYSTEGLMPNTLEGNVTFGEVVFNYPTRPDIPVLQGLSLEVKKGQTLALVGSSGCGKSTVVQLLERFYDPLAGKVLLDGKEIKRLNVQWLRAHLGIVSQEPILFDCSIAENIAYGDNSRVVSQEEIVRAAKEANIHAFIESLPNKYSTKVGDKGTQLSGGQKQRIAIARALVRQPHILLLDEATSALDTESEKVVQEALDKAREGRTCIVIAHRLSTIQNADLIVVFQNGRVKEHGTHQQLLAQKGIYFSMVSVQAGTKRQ

For orientation: IC50 means the concentration at which inhibition is half-maximal. On to `CC(O)(c1ccc(F)cn1)C(F)(F)CCOc1c(F)ccc(-c2ccn3nc(N)nc3c2)c1F` (single isomer, unassigned) [Example 27, 5-(3-(2-amino-[1,2,4]triazolo[1,5-a]pyridin-7-yl)-2,6-difluorophenoxy)-3,3-difluoro-2-(5-fluoropyridin-2-yl)pentan-2-ol], for which the IC50 in the data set with hWB came to 64 nM. For the same compound, the efflux ratio at 2 h, 0.1 uM in data set [1] is 1.1; in data set [2], 1.6.
Turning to `CC(O)(c1ccc(F)cn1)C(F)(F)CCOc1c(F)ccc(-c2ccn3nc(N)nc3c2)c1F` (single isomer, unassigned) [Example 28, 5-(3-(2-amino-[1,2,4]triazolo[1,5-a]pyridin-7-yl)-2,6-difluorophenoxy)-3,3-difluoro-2-(5-fluoropyridin-2-yl)pentan-2-ol], half-maximal inhibition in the data set with hWB (IC50) was put at 82 nM.
In the data set with hWB, `CC(O)(c1ccc(F)cc1)C(F)(F)CCOc1c(F)cc(F)c(-c2ccn3nc(N)nc3c2)c1F` (single isomer, unassigned) [Example 29, 5-(3-(2-amino-[1,2,4]triazolo[1,5-a]pyridin-7-yl)-2,4,6-trifluorophenoxy)-3,3-difluoro-2-(4-fluorophenyl)pentan-2-ol] displayed an IC50 of 4 nM. Also, the values for the efflux ratio at 2 h, 0.1 uM in data set [1] and in data set [2] were 1.6 and 2.5, respectively.
In the same order, the values of `CC(O)(c1ccc(F)cc1)C(F)(F)CCOc1c(F)c(F)cc(-c2ccn3nc(N)nc3c2)c1F` (single isomer, unassigned) [Example 30, 5-(3-(2-amino-[1,2,4]triazolo[1,5-a]pyridin-7-yl)-2,5,6-trifluorophenoxy)-3,3-difluoro-2-(4-fluorophenyl)pentan-2-ol] are 8 nM, 2.5 and 3.
With `CC(O)(c1ccccc1)C(F)(F)CCOc1c(F)ccc(-c2ccn3nc(N)nc3c2F)c1F` (single isomer, unassigned) [Example 38, 5-(3-(2-amino-8-fluoro-[1,2,4]triazolo[1,5-a]pyridin-7-yl)-2,6-difluorophenoxy)-3,3-difluoro-2-phenylpentan-2-ol], the IC50 in data set [3] (Homo sapiens) stood at 0.3 nM. Also, the efflux ratio at 2 h, 0.1 uM in data set [1] came to 2.1; in data set [2], 5.1.
For `CC(O)(c1ccccc1)C(F)(F)CCOc1c(F)ccc(-c2ccn3nc(N)nc3c2)c1F` (single isomer, unassigned) [Example 40, 5-(3-(2-amino-[1,2,4]triazolo[1,5-a]pyridin-7-yl)-2,6-difluorophenoxy)-3,3-difluoro-2-phenylpentan-2-ol], in data set [3], the IC50 came to 0.6 nM. Also, the efflux ratio at 2 h, 0.1 uM in data set [1] turned out to be 1.7; in data set [2] it was 4.8.
Regarding `C[C@](O)(c1ccc(F)cc1)C(F)(F)CCOc1c(F)ccc(-c2ccn3nc(N)nc3c2)c1F` (single isomer, unassigned) [Example 49, 5-(3-(2-amino-[1,2,4]triazolo[1,5-a]pyridin-7-yl)-2,6-difluorophenoxy)-3,3-difluoro-2-(4-fluorophenyl)pentan-2-ol], in data set [3] (Homo sapiens), the IC50 turned out to be 34 nM. For the same compound, the efflux ratio at 2 h, 0.1 uM worked out at 1.5 in data set [1] and 4 in data set [2].
Consider `C[C@@](O)(c1ccc(F)cc1)C(F)(F)CCOc1c(F)ccc(-c2ccn3nc(N)nc3c2)c1F` (single isomer, unassigned) [Example 50, 5-(3-(2-amino-[1,2,4]triazolo[1,5-a]pyridin-7-yl)-2,6-difluorophenoxy)-3,3-difluoro-2-(4-fluorophenyl)pentan-2-ol], for which the IC50 in data set [3] (Homo sapiens) was found to be 0.4 nM. The efflux ratio at 2 h, 0.1 uM in data set [1] worked out at 1.6; in data set [2], 2.4.
Consider `CC(O)(c1ccc(F)cc1)C(F)(F)CCOc1c(Cl)ccc(-c2ccn3nc(N)nc3c2)c1F` (single isomer, unassigned) [Example 52, 5-(3-(2-amino-[1,2,4]triazolo[1,5-a]pyridin-7-yl)-6-chloro-2-fluorophenoxy)-3,3-difluoro-2-(4-fluorophenyl)pentan-2-ol], for which, in data set [3], the IC50 amounted to 0.5 nM. Further, the efflux ratio at 2 h, 0.1 uM is 1.5 in data set [1] and 1.7 in data set [2].
On the same counts, the results for `CC(O)(c1ccc(F)cc1)C(F)(F)CCOc1ccc(Cl)c(-c2ccn3nc(N)nc3c2)n1` (single isomer, unassigned) [Example 80, 5-((6-(2-amino-[1,2,4]triazolo[1,5-a]pyridin-7-yl)-5-chloropyridin-2-yl)oxy)-3,3-difluoro-2-(4-fluorophenyl)pentan-2-ol] are 6.8 nM, 5.9 and 5.6.
